# Experimental data: patent US11980607B2, “Methods of treating malignant lymphoproliferative disorders” (Actuate Therapeutics Inc., priority 2018, dated 2024)
# Tests used:
# [1] = tested on: SUDHL-4, KPUM-UH1, Karpas 22, or TMD8 lymphoma cells; assay: cells; type: cell-based
# Experimental: FIGS. 1A-1E show the viability and proliferation of lymphoma cells with 9-ING-41 treatment. 10,000 cells (SUDHL-4 (FIG. 1B), KPUM-UH1 (FIG. 1C), Karpas 422 (FIG. 1D), TMD8 (FIG. 1E)) per 96-well plate well were left untreated or treated with 1 μM 9-ING-41 in triplicate, and the number of cells on days 1, 3, 5 and 7 were calculated using the MTS assay. Briefly, 20 μL of MTS reagent was added to cells and incubated for 2 hours and, the absorbance at 490 nm (A490) was read using a Biotek plate reader. Absorbance at OD=490 nm increases proportionally to cell density. Error bars represent std. deviation between replicates.
# Daudi (Burkitt) and SUDHL-4 (germinal center (GC) diffuse large B-cell lymphoma (DLBCL)) cell lines were purchased from […]. (ATCC). KPUM-UH1 (double hit DLBCL) cells were obtained from Junya Kuroda, Kyoto Prefectural University of Medicine, Kyoto, Japan. All cell lines were cultured aseptically and maintained in a water-jacketed incubator (Thermo-Forma) at 37° C. with 5% CO2 and fed with RPMI-1640 (Corning) containing […] glutamine, 10% FBS (Sigma), and antibiotic and antimycotic reagent (Gemini Bioproducts; final concentrations—100 units/mL penicillin G, 100 μg/mL streptomycin sulfate, and 250 ng/mL amphotericin B). Karpas 422 (GC-DLBCL) cells was purchased from Sigma. […] All cell numbers for assays were quantified using a TC20 automated cell counter (BioRad). […]
# Cell viability at day 3 and proliferation over the course of 7 days were measured after treating cells with varying concentrations of 9-ING-41 using the Promega CellTiter 96® AQueous One Solution Cell Proliferation Assay reagent (MTS) in accordance with the manufacturer's instructions. […] The absorbance at 490 nm (A490) was determined using a Powerwave XS plate reader (Biotek).
# All lymphoma cell lines used in this study express active GSK-3β. SUDHL-4, KPUM-UH1, […], or TMD8 lymphoma cells were plated, and cell numbers on days 1, 3, 5 and 7 were measured using the MTS assay. […]
# [2] = tested on: lymphoma cell lines (Jeko, Mino, OCI-Ly3); assay: DNA cell cycle analysis; type: cell-based, human; conditions: after as little as 24 hours of treatment, all lines tested
# Experimental: (B) Cell cycle profiles of parental Ly-1 cells and GSK3α, GSK3β, GSK-3αβ knockout subclones. Inset: Western blot image showing the depletion of GSK3α and GSK-3β protein in the knockout Ly-1 subclones.
# Cells were fixed and permeabilized with cold ethanol, treated with RNase, and stained with propidium iodide (Sigma). Stained cells were run on a BD FACS Calibur using CELLQuest PRO Software (Becton Dickinson). Data were analyzed with FlowJo v.X software (Tree Star Inc).
# The effect of 9-ING-41 on lymphoma cell cycle kinetics was examined. […] To further determine whether this G2/M arrest specifically resulted from GSK3β inhibition, the cell cycle profile of parental (wildtype), GSK3A, GSK3B, and GSK3A/B knockout Ly-1 subclones was examined. […] These cell cycle abnormalities of GSK3B-null and GSK3A/B-null Ly-1 cells are subtle and have little impact on the survival of the Ly-1 progeny, likely through Ly-1 cell line specific compensatory mechanisms.
# [3] = tested on: GSK3β localization in Jeko cells; assay: Immunofluorescence staining for GSK3β localization; type: cell-based, human; conditions: 9-ING-41 treated Jeko cells
# Experimental: (B) A close-up (magnification) image of that shown in (A). […] (L) A close-up image of a mitotic cell shown in (K). (M) An overlay image showing the microtubule structure by α-tubulin (red) staining and DNA (in blue). (N) A close-up image of that shown in (M). […] (R) A close-up image of a representative mitotic cell shown in (Q). All other immunostainings of GSK3β and α-Tubulin on cytospin preparations of lymphoma cells were fixed with 4% paraformaldehyde in PBS for 15 min at room temperature followed by permeabilization and the same staining steps as above. The cells were analyzed and imaged on a conventional Zeiss microscope or a Zeiss LSR 780 confocal microscope. To determine the intracellular localization of GSK3β in mitotic cells, GSK3β localization in normal mitotic Jeko cells was analyzed. […] The localization of GSK3β in 9-ING-41 treated Jeko cells (FIG. 8Q-R) was determined.
structure (smiles),measurement,setting,value
"Cn1cc(C2=C(c3coc4ccc(F)cc34)C(=O)NC2=O)c2cc3c(cc21)OCO3 [9-ING-41, 3-(5-Fluorobenzofuran-3-yl)-4-(5-methyl-5H-[1,3]dioxolo[4,5-f]indol-7-yl)pyrrole-2,5-dione]","Proliferation on day 7, relative to control","[1]; 1 μM 9-ING-41, day 7, all lymphoma cell lines, p<0.05",less than 30%
same,cytotoxicity at 1 µM,"[1]; 72 h, read-out: Reduction of cell viability on day 3",40 to 70%
same,Concentration at which a reduction in viability was seen,"[1]; tested 0.1, 0.5, 1, 5 and 10 μM",≥ 0.5 µM
same,Cell cycle effect,[2],cell cycle blockage at G2/M
same,Effect on localization of GSK3β,[3],did not alter the localization of GSK3β
